Results reported in patent US4839374A, “4-((Bicyclic heterocyclyl)-methyl and -hetero)-piperidines” (Janssen Pharmaceutica, N.V., priority 1987, dated 1989).
Like-named read-outs stand apart in the source and are kept apart here.

Columns and labels:
[1] = tested on: effects of serotonin; test: Antagonistic activity on the effects of serotonin in the gastric lesion test (lesions induced by compound 48/80); assay type: in vivo, rats of a Wistar inbred strain; settings: for ED50: Rattus norvegicus, po, read-out: gastric lesion test ED50
Protocol: Antagonistic activity on the effects of serotonin in the gastric lesion test.
The shock, followed by dead, can be avoided if the rats are pretreated with a classical H 1 antagonist.
Male rats of a Wistar inbred strain, weighing 220-250 g, were starved overnight, water being available ad libitum. The test compounds were administered orally as a solution or as a suspension in aqueous medium. A control rat and a "blank" rat received the test compound. One hour later 5-[4-(diphenylmethyl)1-piperazinylmethyl]-1-methyl-1H-benzimidazole-2-methanol was administered subcutaneously to all rats at the dose of 2.5 mg/kg. […] Four hours after the intravenous injection of compound 48/80, the rats were decapitated and the stomachs were removed. Subsequently the stomachs were inspected for distension and contents (blood, fluid, food) and thoroughly rinsed. The macroscopic lesions were scored from 0 to +++, 0 corresponding to complete absence of visible lesions and the highest score corresponding to reddish rough patches covering more than half the glandular area.
The second column of tables 1-4 show for a number of compounds of formula (I) the doses (in mg/kg body weight) at which the distension of the stomach as well as the lesions in the glandular area of the stomach are completely absent in 50% of the test rats (ED50 -value).

[2] = tested on: compound 48/80-induced lethality; test: Protection of rats from compound 48/80-induced lethality; assay type: in vivo, rats of an inbred Wistar strain; settings: protection of 50% of animals, survival after 4 hours; for ED50: Rattus norvegicus, 4 h, read-out: Compound 48/80 lethality test in rats ED50, s.c. or p.o. 1 h before compound 48/80 0.5 mg/kg i.v.
Summary of the method: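 Male inbred Wistar rats (240-260 g), starved overnight, dosed subcutaneously or orally with compound or 0.9% NaCl before compound 48/80 challenge. Survival at 4 hours counted as protection. ED50 in mg/kg is the dose protecting 50% of animals from lethality.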

[3] = compound 48/80 1 mg/kg i.v., distension and lesions of stomach completely absent in 50% of rats

| Structure (SMILES) | ED50 [1, 3] [mg/kg] | ED50 [2] [mg/kg] | ED50 [1] [mg/kg] | gastric lesion test ED50 ([1]; oral, compound 48/80 1 mg/kg i.v., distension and lesions of stomach completely absent in 50% of rats, 1 mg/kg) [mg/kg body weight] | Compound 48/80 lethality test in rats ED50 ([2]; s.c. or p.o. 1 h before compound 48/80 0.5 mg/kg i.v., 0.5 mg/kg, 240 min) [mg/kg body weight] |
| --- | --- | --- | --- | --- | --- |
| Fc1ccc(Cn2c(CC3CCN(CCNc4ccccn4)CC3)nc3ccccc32)cc1 [Compound 499] | 0.01 | 0.04 | – | – | – |
| Fc1ccc(Cn2c(CC3CCN(CCNc4ncc[nH]4)CC3)nc3ccccc32)cc1 [Compound 453, 4-[[1-[(4-fluorophenyl)methyl]-1H-benzimidazol-2-yl]methyl]-N-(1H-imidazol-2-yl)-1-piperidineethanamine] | 0.02 | 0.04 | – | – | – |
| O=C(NCCN1CCC(Cc2nc3cccnc3n2Cc2ccc(F)cc2)CC1)c1ccoc1 [Compound 432] | 0.31 | 0.04 | – | – | – |
| O=C(NCCN1CCC(Cc2nc3ccccc3n2Cc2ccc(F)cc2)CC1)c1ccsc1 [Compound 431] | 0.005 | 0.04 | – | – | – |
| c1ccc(Cn2c(CC3CCN(CCNc4nc5cnccc5[nH]4)CC3)nc3ccccc32)cc1 [Compound 422, N-[2-[4-[[1-(phenylmethyl)-1H-benzimidazol-2-yl]methyl]-1-piperidinyl]ethyl]-1H-imidazo[4,5-c]pyridin-2-amine] | – | 0.04 | 0.04 | – | – |
| Cc1csc(NCCN2CCC(Cc3nc4ccccc4n3Cc3ccc(F)cc3)CC2)n1 [Compound 456, 4-[(1-[(4-fluorophenyl)methyl]-1H-benzimidazol-2-yl]methyl]-N-(4-methyl-2-thiazolyl)-1-piperidineethanamine] | 0.63 | 0.01 | – | – | – |
| Cc1nc2n(c(=O)c1CCN1CCC(Cc3nc4ccccc4n3Cc3cscn3)CC1)CCCC2 [Compound 262] | 0.16 | 0.04 | – | – | – |
| Fc1ccc(Cn2c(CC3CCN(CCNc4nc5cccnc5s4)CC3)nc3ccccc32)cc1 [Compound 330, N-[2-[4-[[1-[(4-fluorophenyl)methyl]-1H-benzimidazol-2-yl]methyl]-1-piperidinyl]ethyl]thiazolo[5,4-b]pyridin-2-amine] | 0.16 | 0.08 | – | – | – |
| Cc1nc2n(c(=O)c1CCN1CCC(Cc3nc4ccccc4n3Cc3ccco3)CC1)CCCC2 [Compound 226] | – | 0.08 | 0.04 | – | – |
| Fc1ccc(Cn2c(CC3CCN(CCN4CCOCC4)CC3)nc3ccccc32)cc1 [Compound 131] | 0.16 | 0.02 | – | – | – |
| Cc1nc2c(NCCN3CCC(Cc4nc5ccccc5n4Cc4ccc(F)cc4)CC3)ncnc2n1C [Compound 372] | 0.16 | 0.04 | – | – | – |
| CC(C)NC(=O)CCN1CCC(Cc2nc3ccccc3n2Cc2ccc(F)cc2)CC1 [Compound 145, 4-[[1-[(4-fluorophenyl)methyl]-1H-benzimidazol-2-yl]methyl]-N-(1-methylethyl)-1-piperidinepropanamide] | 0.16 | 0.02 | – | – | – |
| Cc1cc(NCCN2CCC(Cc3nc4ccccc4n3Cc3ccc(F)cc3)CC2)nc(Cl)n1 [Compound 383, 2-chloro-N-[2-[4-[[1-[(4-fluorophenyl)methyl]-1H-benzimidazol-2-yl]methyl]-1-piperidinyl]ethyl]-6-methyl-4-pyrimidinamine] | 0.16 | 0.04 | – | – | – |
| O=C(CCCN1CCC(Cc2nc3cccnc3n2Cc2ccc(F)cc2)CC1)c1ccc(F)cc1 [Compound 228] | – | – | – | 0.01 | 0.04 |
| c1cnc(NCCN2CCC(Cc3nc4ccccc4n3Cc3cccs3)CC2)nc1 [Compound 336] | – | 0.01 | 0.08 | – | – |
| Oc1ccc(CCN2CCC(Cc3nc4ccc(O)cc4n3Cc3ccc(F)cc3)CC2)cc1 [Compound 505, 1-[(4-fluorophenyl)methyl]-2-[[1-[2-(4-hydroxyphenyl)ethyl]-4-piperidinyl]-methyl]-1H-benzimidazol-6-ol] | – | 0.04 | 0.04 | – | – |
| Fc1ccc(Cn2c(CC3CCN(CCNc4nnc(Cl)c5ccccc45)CC3)nc3ccccc32)cc1 [Compound 381, 4-chloro-N-[2-[4-[[1-[(4-fluorophenyl)methyl]-1H-benzimidazol-2-yl]methyl]-1-piperidinyl]ethyl]-1-phthalazinamine] | 0.16 | 0.08 | – | – | – |
| COc1ccc(CCN2CCC(Cc3nc4ccc(OC)cc4n3Cc3ccc(F)cc3)CC2)cc1 [Compound 273] | 0.31 | 0.01 | – | – | – |
| COc1ccc(CCN2CCC(Cc3nc4cccnc4n3Cc3ccccc3)CC2)cc1 [Compound 198] | – | 0.04 | 0.08 | – | – |

| Structure (SMILES) | ED50 [1, 3] [mg/kg] | ED50 [2] [mg/kg] | ED50 [1] [mg/kg] | gastric lesion test ED50 ([1]; oral, compound 48/80 1 mg/kg i.v., distension and lesions of stomach completely absent in 50% of rats, 1 mg/kg) [mg/kg body weight] | Compound 48/80 lethality test in rats ED50 ([2]; s.c. or p.o. 1 h before compound 48/80 0.5 mg/kg i.v., 0.5 mg/kg, 240 min) [mg/kg body weight] |
| --- | --- | --- | --- | --- | --- |
| Fc1ccc(Cn2c(CC3CCN(CCNc4nc5ccccc5s4)CC3)nc3ccccc32)cc1 [Compound 367] | 0.16 | 0.16 | – | – | – |
| CNc1ccccc1C(=O)NCCN1CCC(Cc2nc3ccccc3n2Cc2ccc(F)cc2)CC1 [Compound 467, N-[2-[4-[[1-[(4-fluorophenyl)methyl]-1H-benzimidazol-2-yl]methyl]-1-piperidinyl]ethyl]-2-(methylamino)benzamide] | – | 0.04 | 0.08 | – | – |
| Fc1ccc(Cn2c(CC3CCN(CCNc4ncccn4)CC3)nc3ccncc32)cc1 [Compound 351, N-[2-[4-[[3-[(4-fluorophenyl)methyl]-3H-imidazo[4,5-c]pyridin-2-yl]methyl]-1-piperdinyl]-ethyl]-2-pyrimidinamine] | – | 0.02 | 0.08 | – | – |
| CN(CCN1CCC(Cc2nc3ccccc3n2Cc2ccc(F)cc2)CC1)c1ncccn1 [Compound 514, N-[2-[4-[[1-[(4-fluorophenyl)methyl]-1H-benzimidazol-2-yl]methyl]-1-piperidinyl]ethyl]-N-methyl-2-pyrimidinamine] | 0.63 | 0.02 | – | – | – |
| Fc1ccc(Cn2c(CC3CCN(CCNc4ncccn4)CC3)nc3ccccc32)cc1 [Compound 374] | 0.02 | 0.02 | – | – | – |
| c1coc(Cn2c(CC3CCN(CCNc4nc5cnccc5[nH]4)CC3)nc3ccccc32)c1 [Compound 418, N-[2-[4-[[1-(2-furanylmethyl)-1H-benzimidazol-2-yl]methyl]-1-piperidinyl]ethyl]-1H-imidazo[4,5-c]pyridin-2-amine] | – | 0.02 | 0.04 | – | – |
| Cc1ncsc1CCN1CCC(Cc2nc3ccccc3n2Cc2ccc(F)cc2)CC1 [Compound 182] | 0.63 | 0.04 | – | – | – |
| Fc1ccc(Cn2c(CC3CCN(CCc4ccccn4)CC3)nc3ccccc32)cc1 [Compound 103, 1-[(4-fluorophenyl)methyl]-2-[[1-[2-(2-pyridinyl)ethyl]-4-piperidinyl]-methyl]-1H-benzimidazole] | 0.16 | 0.005 | – | – | – |
| CCNC(=O)NCCN1CCC(Cc2nc3ccccc3n2Cc2ccc(F)cc2)CC1 [Compound 430, N-ethyl-N'-[2-[4-[[1-[(4-fluorophenyl)methyl]-1H-benzimidazol-2-yl]methyl]-1-piperidinyl]ethyl]urea] | 0.005 | 0.01 | – | – | – |
| S=C=NCCN1CCC(Cc2nc3ccccc3n2Cc2cccs2)CC1 [Compound 397] | – | 0.04 | 0.04 | – | – |
| Fc1ccc(Cn2c(CC3CCN(CCNc4ncccn4)CC3)nc3cccnc32)cc1 [Compound 376, N-[2-[4-[[3-[(4-fluorophenyl)methyl]-3H-imidazo[4,5-b]pyridin-2-yl]methyl]-1-piperidinyl]ethyl]-2-pyrimidinamine] | 0.63 | 0.02 | – | – | – |
| Cc1nc2ccccn2c(=O)c1CCN1CCC(Cc2nc3ncccc3n2Cc2ccc(F)cc2)CC1 [Compound 272] | 0.63 | 0.08 | – | – | – |
| c1cnc(NCCN2CCC(Cc3nc4cccnc4n3Cc3cccs3)CC2)nc1 [Compound 342] | 0.16 | 0.02 | – | – | – |
| c1cnc(OCCN2CCC(Cc3nc4ccccc4n3Cc3ccco3)CC2)nc1 [Compound 392, 1-(2-furanylmethyl)-2-[[1-[2-(2-pyrimidinyloxy)ethyl]-4-piperidinyl]methyl]-1H-benzimidazole] | 0.63 | 0.02 | – | – | – |
| CC(=O)CCN1CCC(Cc2nc3ccccc3n2Cc2ccc(F)cc2)CC1 [Compound 102, 4-[4-[[1-[(4-fluorophenyl)methyl]-1H-benzimidazol-2-yl]methyl]-1-piperidinyl]-2-butanone] | 0.31 | 0.02 | – | – | – |
| CCOCCN1CCC(Cc2nc3ccccc3n2Cc2ccc(F)cc2)CC1 [Compound 133] | 0.16 | 0.02 | – | – | – |
| COc1ccc(CCN2CCC(Cc3nc4ccccc4n3Cc3ccsc3)CC2)cc1 [Compound 523, 2-[[1-[2-(4-methoxyphenyl)ethyl]-4-piperidinyl]methyl]-1-(3-thienylmethyl)-1H-benzimidazole] | 0.31 | 0.04 | – | – | – |
| Fc1ccc(Cn2c(CC3CCN(C4CCN(c5ncccn5)CC4)CC3)nc3ccccc32)cc1 [Compound 347, 4-[[1-[(4-fluorophenyl)methyl]-1H-benzimidazol-2-yl]methyl]-1'-(2-pyrimidinyl)-[1,4'-bipiperidine]] | 0.63 | 0.08 | – | – | – |
